# Laboratory results from ChEMBL document CHEMBL1143778, “Studies towards the identification of a new generation of atypical antipsychotic agents” (Bioorg Med Chem Lett, 2007).
# Where “and” joins values, the source holds several entries; their conditions need not be identical. Equal values may be shown once.
# Columns and labels:
# Cytochrome P450 1A2 = molecular target: T1, Cytochrome P450 1A2 (Homo sapiens, UniProt P05177); assay: Inhibition of CYP1A2; assay type: ADME
# T1 sequence (P05177 whole entry): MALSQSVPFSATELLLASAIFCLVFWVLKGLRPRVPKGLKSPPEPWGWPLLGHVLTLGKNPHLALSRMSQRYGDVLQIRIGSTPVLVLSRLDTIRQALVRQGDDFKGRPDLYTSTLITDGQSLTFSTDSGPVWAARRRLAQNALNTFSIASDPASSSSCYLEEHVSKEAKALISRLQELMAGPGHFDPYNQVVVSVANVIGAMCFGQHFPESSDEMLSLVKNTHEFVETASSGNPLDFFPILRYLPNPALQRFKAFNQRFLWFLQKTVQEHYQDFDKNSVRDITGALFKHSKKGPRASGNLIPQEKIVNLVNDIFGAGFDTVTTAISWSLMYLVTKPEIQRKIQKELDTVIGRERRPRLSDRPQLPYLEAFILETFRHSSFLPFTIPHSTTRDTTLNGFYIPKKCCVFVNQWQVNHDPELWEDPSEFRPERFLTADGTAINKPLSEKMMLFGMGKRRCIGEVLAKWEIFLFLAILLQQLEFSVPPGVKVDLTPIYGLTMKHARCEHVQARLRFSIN
# [1] = molecular target: T2, 5-hydroxytryptamine receptor 2A (Homo sapiens, UniProt P28223); assay: Displacement of radioligand from human recombinant 5HT2A receptor
# T2 sequence (P28223 whole entry): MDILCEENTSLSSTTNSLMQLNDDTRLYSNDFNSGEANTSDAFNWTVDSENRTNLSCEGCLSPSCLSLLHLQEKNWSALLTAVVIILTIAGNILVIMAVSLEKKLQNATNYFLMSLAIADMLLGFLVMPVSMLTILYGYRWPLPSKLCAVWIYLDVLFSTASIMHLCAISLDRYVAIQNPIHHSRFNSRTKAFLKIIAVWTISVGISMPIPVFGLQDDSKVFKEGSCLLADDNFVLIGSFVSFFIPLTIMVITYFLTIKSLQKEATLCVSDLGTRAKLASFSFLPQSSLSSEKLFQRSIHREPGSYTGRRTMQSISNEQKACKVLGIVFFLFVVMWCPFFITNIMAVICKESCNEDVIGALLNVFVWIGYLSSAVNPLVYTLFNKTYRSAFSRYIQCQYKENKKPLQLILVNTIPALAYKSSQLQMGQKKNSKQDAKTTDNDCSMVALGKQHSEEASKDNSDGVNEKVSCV
# Cytochrome P450 2C19 = Cytochrome P450 2C19 (Homo sapiens, UniProt P33261); assay: Inhibition of CYP2C19; assay type: ADME
# Cytochrome P450 2C19, sequence (P33261 whole entry): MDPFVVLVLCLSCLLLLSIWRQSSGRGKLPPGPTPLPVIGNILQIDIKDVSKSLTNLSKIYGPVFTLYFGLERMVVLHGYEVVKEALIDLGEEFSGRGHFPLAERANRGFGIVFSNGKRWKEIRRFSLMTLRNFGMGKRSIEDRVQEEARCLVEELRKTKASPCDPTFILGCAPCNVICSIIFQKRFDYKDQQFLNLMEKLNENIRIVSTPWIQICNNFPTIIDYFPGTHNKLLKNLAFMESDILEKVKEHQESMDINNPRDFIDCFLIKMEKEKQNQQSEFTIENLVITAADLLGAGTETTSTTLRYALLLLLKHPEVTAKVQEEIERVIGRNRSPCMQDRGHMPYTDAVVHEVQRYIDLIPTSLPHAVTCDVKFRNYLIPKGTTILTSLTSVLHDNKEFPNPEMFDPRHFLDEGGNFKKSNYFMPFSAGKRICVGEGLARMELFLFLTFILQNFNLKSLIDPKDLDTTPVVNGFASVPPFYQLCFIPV
# D(2) dopamine receptor [2] = molecular target: T3, D(2) dopamine receptor (Homo sapiens, UniProt P14416); assay: Displacement of [125I]iodosulpiride from human recombinant dopamine D2 receptor expressed in CHO cells; assay type: cell-based
# T3 sequence (P14416 whole entry): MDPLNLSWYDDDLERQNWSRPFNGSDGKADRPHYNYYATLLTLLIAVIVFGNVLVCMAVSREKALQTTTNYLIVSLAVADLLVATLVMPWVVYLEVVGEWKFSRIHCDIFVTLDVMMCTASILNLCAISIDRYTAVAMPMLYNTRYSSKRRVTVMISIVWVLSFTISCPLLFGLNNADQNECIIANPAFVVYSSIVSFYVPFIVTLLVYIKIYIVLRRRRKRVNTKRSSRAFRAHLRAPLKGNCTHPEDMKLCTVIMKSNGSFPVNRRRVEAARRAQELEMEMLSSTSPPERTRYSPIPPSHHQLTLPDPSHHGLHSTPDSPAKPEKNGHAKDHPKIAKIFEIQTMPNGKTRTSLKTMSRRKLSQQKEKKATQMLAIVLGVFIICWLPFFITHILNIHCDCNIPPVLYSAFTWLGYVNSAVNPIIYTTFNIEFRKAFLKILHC
# [3] = molecular target: T4, 5-hydroxytryptamine receptor 6 (Homo sapiens, UniProt P50406); assay: Displacement of radioligand from human recombinant 5HT6 receptor
# T4 sequence (P50406 whole entry): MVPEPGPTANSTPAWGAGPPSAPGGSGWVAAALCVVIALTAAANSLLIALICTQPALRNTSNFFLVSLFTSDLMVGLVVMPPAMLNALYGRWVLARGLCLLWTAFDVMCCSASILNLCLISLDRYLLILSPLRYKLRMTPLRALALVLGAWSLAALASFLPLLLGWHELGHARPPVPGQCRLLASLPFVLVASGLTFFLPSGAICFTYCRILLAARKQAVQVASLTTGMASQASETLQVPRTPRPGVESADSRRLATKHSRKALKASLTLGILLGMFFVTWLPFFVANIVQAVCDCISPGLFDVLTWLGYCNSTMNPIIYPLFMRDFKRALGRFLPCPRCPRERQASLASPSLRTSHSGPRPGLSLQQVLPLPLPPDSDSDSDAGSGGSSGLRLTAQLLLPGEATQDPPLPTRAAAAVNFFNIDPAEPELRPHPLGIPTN
# Cytochrome P450 2D6 = Cytochrome P450 2D6 (Homo sapiens, UniProt P10635); assay: Inhibition of CYP2D6; assay type: ADME
# Cytochrome P450 2D6, sequence (P10635 whole entry): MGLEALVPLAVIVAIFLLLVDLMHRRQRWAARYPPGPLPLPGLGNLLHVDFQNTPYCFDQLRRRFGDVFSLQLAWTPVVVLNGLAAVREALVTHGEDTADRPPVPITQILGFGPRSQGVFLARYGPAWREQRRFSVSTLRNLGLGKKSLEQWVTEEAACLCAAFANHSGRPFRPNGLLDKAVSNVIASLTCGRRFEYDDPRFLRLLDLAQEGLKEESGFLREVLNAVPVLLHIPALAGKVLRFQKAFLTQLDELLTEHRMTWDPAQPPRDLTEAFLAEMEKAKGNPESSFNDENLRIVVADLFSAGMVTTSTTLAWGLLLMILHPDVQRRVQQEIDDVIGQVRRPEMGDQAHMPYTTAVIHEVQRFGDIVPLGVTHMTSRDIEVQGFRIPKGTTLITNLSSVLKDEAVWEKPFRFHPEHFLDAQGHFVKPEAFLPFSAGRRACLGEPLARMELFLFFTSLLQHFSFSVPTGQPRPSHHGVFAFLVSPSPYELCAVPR
# Cytochrome P450 3A4 = Cytochrome P450 3A4 (Homo sapiens, UniProt P08684); assay: Inhibition of CYP3A4; assay type: ADME
# Cytochrome P450 3A4, sequence (P08684 whole entry): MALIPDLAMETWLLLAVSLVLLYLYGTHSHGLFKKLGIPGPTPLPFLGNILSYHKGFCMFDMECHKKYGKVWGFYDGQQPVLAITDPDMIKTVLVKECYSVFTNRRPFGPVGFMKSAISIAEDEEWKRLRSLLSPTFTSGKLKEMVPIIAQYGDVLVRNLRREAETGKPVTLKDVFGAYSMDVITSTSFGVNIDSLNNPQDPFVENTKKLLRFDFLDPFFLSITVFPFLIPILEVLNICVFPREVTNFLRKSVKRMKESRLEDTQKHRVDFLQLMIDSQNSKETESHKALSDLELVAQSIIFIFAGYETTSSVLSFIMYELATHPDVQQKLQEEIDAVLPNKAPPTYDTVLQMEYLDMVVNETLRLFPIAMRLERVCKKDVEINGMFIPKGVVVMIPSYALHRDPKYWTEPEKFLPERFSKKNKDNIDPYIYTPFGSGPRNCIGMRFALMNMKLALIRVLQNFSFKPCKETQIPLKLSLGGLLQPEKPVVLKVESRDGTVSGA
# Cytochrome P450 2C9 = Cytochrome P450 2C9 (Homo sapiens, UniProt P11712); assay: Inhibition of CYP2C9; assay type: ADME
# Cytochrome P450 2C9, sequence (P11712 whole entry): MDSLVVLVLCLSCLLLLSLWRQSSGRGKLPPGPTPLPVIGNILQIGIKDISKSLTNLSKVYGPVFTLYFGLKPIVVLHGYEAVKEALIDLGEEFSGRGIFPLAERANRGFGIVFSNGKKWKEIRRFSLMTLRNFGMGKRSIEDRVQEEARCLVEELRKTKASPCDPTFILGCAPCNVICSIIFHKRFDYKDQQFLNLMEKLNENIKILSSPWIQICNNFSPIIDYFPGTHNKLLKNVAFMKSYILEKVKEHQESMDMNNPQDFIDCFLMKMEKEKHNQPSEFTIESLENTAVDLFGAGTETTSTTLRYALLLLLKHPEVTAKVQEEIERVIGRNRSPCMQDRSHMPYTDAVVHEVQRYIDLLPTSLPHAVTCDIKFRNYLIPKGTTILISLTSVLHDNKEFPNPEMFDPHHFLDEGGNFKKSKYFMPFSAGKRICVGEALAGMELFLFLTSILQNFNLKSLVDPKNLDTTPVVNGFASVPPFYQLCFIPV
# [4] = molecular target: T5, 5-hydroxytryptamine receptor 2C (Homo sapiens, UniProt P28335); assay: Displacement of radioligand from human recombinant 5HT2C receptor
# T5 sequence (P28335 whole entry): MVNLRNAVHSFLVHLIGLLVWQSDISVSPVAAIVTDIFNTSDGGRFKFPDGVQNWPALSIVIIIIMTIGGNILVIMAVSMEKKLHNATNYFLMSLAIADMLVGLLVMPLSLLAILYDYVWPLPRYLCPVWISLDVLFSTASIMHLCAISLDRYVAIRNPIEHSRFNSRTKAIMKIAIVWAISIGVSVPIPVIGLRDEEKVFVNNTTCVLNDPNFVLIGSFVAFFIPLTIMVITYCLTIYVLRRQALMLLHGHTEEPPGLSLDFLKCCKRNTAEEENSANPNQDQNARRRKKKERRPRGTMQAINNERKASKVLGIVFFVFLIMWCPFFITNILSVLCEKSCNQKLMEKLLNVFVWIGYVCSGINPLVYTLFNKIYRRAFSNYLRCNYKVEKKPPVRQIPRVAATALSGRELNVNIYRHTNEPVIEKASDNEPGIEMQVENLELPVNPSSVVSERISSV
# D(3) dopamine receptor [5] = molecular target: T6, D(3) dopamine receptor (Homo sapiens, UniProt P35462); assay: Displacement of [125I]iodosulpiride from human recombinant dopamine D3 receptor expressed in CHO cells; assay type: cell-based
# T6 sequence (P35462 whole entry): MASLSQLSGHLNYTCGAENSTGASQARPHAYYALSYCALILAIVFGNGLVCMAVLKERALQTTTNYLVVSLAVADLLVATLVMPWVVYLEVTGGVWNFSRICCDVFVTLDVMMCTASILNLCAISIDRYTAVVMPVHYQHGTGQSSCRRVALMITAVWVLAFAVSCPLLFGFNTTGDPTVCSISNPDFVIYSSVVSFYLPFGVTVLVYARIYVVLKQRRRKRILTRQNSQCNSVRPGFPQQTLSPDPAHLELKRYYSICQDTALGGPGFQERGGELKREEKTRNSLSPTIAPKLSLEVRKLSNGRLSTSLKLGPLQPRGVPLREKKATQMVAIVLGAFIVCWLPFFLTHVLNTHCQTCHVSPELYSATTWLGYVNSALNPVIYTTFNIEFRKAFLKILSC
# Rattus norvegicus [6] = assay: Reversal of amphetamine-induced hyperactivity in orally dosed rat; assay type: functional; settings: po
# [7] = molecular target: T4, 5-hydroxytryptamine receptor 6; assay: Agonist activity at human 5HT6 receptor by cAMP assay; assay type: functional
# Rattus norvegicus [8] = assay: Toxicity assessed as induction of catalepsy in rat model of extra-pyramidal side effect up to 100 mg/kg, po; assay type: organism-based; parameters: dose 100 mg/kg, route oral; settings: in vivo
# [9] = molecular target: T5, 5-hydroxytryptamine receptor 2C; assay: Agonist activity at human 5HT2C receptor by FLIPR assay; assay type: functional
# [10] = molecular target: T2, 5-hydroxytryptamine receptor 2A; assay: Agonist activity at human 5HT2A receptor by FLIPR assay; assay type: functional
# D(3) dopamine receptor [11] = molecular target: T6, D(3) dopamine receptor; assay: Agonist activity at human dopamine D3 receptor by [35S]GTP-gamma-S binding assay; assay type: functional
# D(2) dopamine receptor [12] = molecular target: T3, D(2) dopamine receptor; assay: Agonist activity at human dopamine D2 receptor by [35S]GTPgammaS binding assay; assay type: functional
SMILES,Ki [1] [nM],Ki (D(2) dopamine receptor [2]),Ki [3] [nM],Ki [4] [nM],Ki (D(3) dopamine receptor [5]),other results
CCCCc1ccc(S(=O)(=O)Nc2ccc3c(c2)CCN(C)CC3)cc1,5.01,31.6 nM,1.26,10,2 nM,IC50 (Cytochrome P450 1A2): 23000 nM; IC50 (Cytochrome P450 2C19): 500 nM; IC50 (Cytochrome P450 2D6): 1600 nM; IC50 (Cytochrome P450 3A4): 12000 nM; IC50 (Cytochrome P450 2C9): 47000 nM
Cc1cc2c(cc1NS(=O)(=O)c1ccc(-c3ccc(Cl)cc3)cc1)CCN(C)CC2,20,15.8 nM,15.8,79.4,1.58 nM,–
CC(C)c1cc2c(cc1NS(=O)(=O)c1ccc(-c3ccc(Cl)cc3)cc1)CCN(C)CC2,5.01,100 nM,12.6,15.8,3.98 nM,–
CCCCc1ccc(S(=O)(=O)Nc2ccc3c(c2)CCNCC3)cc1,15.8,158 nM,2,50.1,15.8 nM,–
CCCCc1ccc(S(=O)(=O)Nc2ccc3c(c2)CN(C)C3)cc1,5.01,200 nM,5.01,10,20 nM,–
Cc1cc(S(=O)(=O)Nc2ccc3c(c2)CCN(C)CC3)ccc1-c1ccc(Cl)cc1,126,31.6 nM,5.01,50.1,6.31 nM,–
COc1cc2c(cc1NS(=O)(=O)c1ccc(-c3ccc(Cl)cc3)cc1)CCN(C)CC2,25.1,3.98 nM,10,39.8,0.794 nM,–
CC(C)Nc1cc2c(cc1NS(=O)(=O)c1ccc(-c3ccc(Cl)cc3)cc1)CCN(C)CC2,1.58,50.1 nM,7.94,5.01,3.16 nM,ED50 (Rattus norvegicus [6]): 20.6 mg/kg; IC50 (Cytochrome P450 1A2): 51000 nM; IC50 (Cytochrome P450 2C19): 25000 nM; EC50 [7]: > 25100 nM; Activity (Rattus norvegicus [8]): Not Active; EC50 [9]: > 12600 nM; IC50 (Cytochrome P450 2D6): 19000 nM; IC50 (Cytochrome P450 3A4): 7500 nM; IC50 (Cytochrome P450 2C9): 17000 nM; EC50 [10]: > 12600 nM; EC50 (D(3) dopamine receptor [11]): > 10000 nM; EC50 (D(2) dopamine receptor [12]): > 10000 nM
CC(C)Oc1cc2c(cc1NS(=O)(=O)c1ccc(-c3ccc(Cl)cc3)cc1)CCN(C)CC2,15.8,6.31 nM,31.6,39.8,0.794 nM,–
CN1CCc2cc(Br)c(NS(=O)(=O)c3ccc(-c4ccc(Cl)cc4)cc3)cc2CC1,–,63.1 nM,50.1,126,5.01 nM,–
CN1CCc2ccc(NS(=O)(=O)c3ccc(-c4ccc(Cl)cc4)s3)cc2CC1,–,398 nM,3.98,126,39.8 nM,–
CN1CCc2ccc(NS(=O)(=O)c3ccc(-c4ccc(C#N)cc4)cc3)cc2CC1,794,501 nM,25.1,100,15.8 nM,–
CN1CCc2cc(Cl)c(NS(=O)(=O)c3ccc(-c4ccc(Cl)cc4)cc3)cc2CC1,31.6,39.8 nM,50.1,39.8,2.51 nM,–
CN1CCc2ccc(NS(=O)(=O)c3ccc(-c4ccc(F)c(Cl)c4)cc3)cc2CC1,50.1,50.1 nM,7.94,31.6,3.98 nM,–
CN1CCc2ccc(NS(=O)(=O)c3ccc(-c4ccc(Cl)cc4)cc3)cc2CC1,200,158 nM,5.01,20,15.8 nM,IC50 (Cytochrome P450 1A2): 25000 nM; IC50 (Cytochrome P450 2C19): 16000 nM; IC50 (Cytochrome P450 2D6): 1500 nM; IC50 (Cytochrome P450 3A4): 58000 nM; IC50 (Cytochrome P450 2C9): 45000 nM
Cc1ccc(-c2ccc(S(=O)(=O)Nc3ccc4c(c3)CCN(C)CC4)cc2)s1,50.1,316 nM,6.31,12.6,25.1 nM,–
CCCCc1ccc(S(=O)(=O)Nc2ccc3c(c2)CNCC3)cc1,12.6,794 nM and 1000 nM,25.1,31.6,12.6 nM and 10 nM,Log Ki [1]: -7.9; Log Ki [3]: -7.6; Log Ki [4]: -7.5
Cc1noc(C)c1-c1ccc(S(=O)(=O)Nc2ccc3c(c2)CCN(C)CC3)cc1,1260,100 nM,10,398,15.8 nM,–
CCCCc1ccc(S(=O)(=O)Nc2ccc3c(c2)CNC3)cc1,–,794 nM,50.1,–,39.8 nM,–
CCCCc1ccc(S(=O)(=O)Nc2ccc3c(c2)CN(C)CC3)cc1,–,398 nM,–,–,25.1 nM,–
